Source: patent US12403135B2, “4H-pyrrolo[3,2-c]pyridin-4-one derivatives” (Bayer Aktiengesellschaft, priority 2019, dated 2025)
Where two headings read alike, the source gives them in different places.

Legend:
Format in all cases: cell-based
Ba/F3-EGFR-L858R cells = Ba/F3-EGFR-L858R cells (Homo sapiens, UniProt P00533, L858R, cells depend on it); assay: BA/F3 EGFR L858R cell survival assay, Cell Titer-Glo; details: read-out: BA/F3 (EGFR L858R) IC50
Protocol: (§1) Plates were incubated at 37° C. for 48 h. Retrovirus was harvested by filtering the media supernatant through a 0.45 μm filter.
(§2) Ba/F3 cells purchased from DSMZ were grown in RPMI+10% FBS+10 ng/mL IL-3 and infected with filtered retroviral supernatant at a 1:2 dilution. Polybrene was added to a concentration of 8 μg/mL, plates were spun for 90 min, and incubated overnight at 37° C. 2 μg/mL puromycin was added to the infected cells 24 h after infection and cells were continually grown in the presence of puromycin and 10 ng/mL IL-3. Following stably expressing Ba/F3 cell lines were generated: Ba/F3-EGFR-L858R, Ba/F3-EGFR-delLREA, (Ba/F3-vector-control).
(§3) For cell survival assays, Ba/F3 cells were grown to a density of 1-2 million cells per mL, spun down and resuspended in media without IL-3, and replated at a concentration 200,000-500,000 cells per mL. The cells ectopically expressing pBABEpuro empty vector were plated with 10 ng/mL IL-3.
(§4) 2 days later, cells were plated in 50 μL in a 384 well plate at a concentration of 4000 cells per well for cells assayed in the absence of IL-3 and 2000 cells per well for cells (pBABE puro empty vector) assayed in the presence of IL-3. 100 nL of compound was added to each well using a 100 nL pin head, and plates were incubated at 37° C. for 48 h.
(§5) Cell viability was measured by adding 20 μL of Cell Titer-Glo Luminescent Cell Viability Reagent diluted 1:3 in PBS. Plates were sealed with Perkin Elmer Top-Seal, inverted several times to mix, and immediately centrifuged at 1000 rpm for 2 min. Plates were incubated in low light conditions for 8-10 min and luminescence was measured.

[1] = biological target: Ba/F3-EGFR-WT cells (BA/F3 wild type EGFR) (Homo sapiens, UniProt P00533); assay: BA/F3 (wild type) proliferation assay, Cell Titer-Glo; details: Table 7; plated with 10 ng/mL EGF, without IL-3, 48 h; read-out: BA/F3 (wild type) IC50
Protocol: as §1
as §2, with “Ba/F3-EGFR-WT.” for “Ba/F3-EGFR-L858R, Ba/F3-EGFR-delLREA, (Ba/F3-vector-control).”
For cell survival assays, Ba/F3 cells were grown to a density of 1-2 million cells per mL, spun down and resuspended in media without IL-3, and replated at a concentration 200,000-500,000 cells per mL. The cells ectopically expressing WT EGFR were plated with 10 ng/mL Millipore Culture grade EGF.
24 hours later, cells were plated in 30 μL in a 384 well plate at a concentration of 3200 cells per well for cells assayed in the absence of IL-3. 100 nL of compound was added to each well using a 100 nL pin head, and plates were incubated at 37° C. for 48 h.
as §5, with “30” for “20”, “Reagent.” for “Reagent diluted 1:3 in PBS.”

[2] = tested on: Ba/F3-EGFR-delLREA cells (EGFR del19/delLREA (746-750), E746_A750del); assay: BA/F3 EGFR del19/delLREA (746-750) (E746_A750del) cell survival assay, Cell Titer-Glo
Protocol: as §1, §2, §3, §4, §5

[3] = biological target: Ba/F3-ERBB2-A775_G776insYVMA cells (Homo sapiens, UniProt P04626, DUP772-775, cells depend on it); assay: BA/F3 (ERBB2 A775_G776 insYVMA) proliferation; details: Table 12; read-out: BA/F3 (ERBB2 A775_G776 insYVMA) IC50
Chain of Ba/F3-ERBB2-A775_G776insYVMA cells (P04626 with tags, fused parts or gaps DUP772-775): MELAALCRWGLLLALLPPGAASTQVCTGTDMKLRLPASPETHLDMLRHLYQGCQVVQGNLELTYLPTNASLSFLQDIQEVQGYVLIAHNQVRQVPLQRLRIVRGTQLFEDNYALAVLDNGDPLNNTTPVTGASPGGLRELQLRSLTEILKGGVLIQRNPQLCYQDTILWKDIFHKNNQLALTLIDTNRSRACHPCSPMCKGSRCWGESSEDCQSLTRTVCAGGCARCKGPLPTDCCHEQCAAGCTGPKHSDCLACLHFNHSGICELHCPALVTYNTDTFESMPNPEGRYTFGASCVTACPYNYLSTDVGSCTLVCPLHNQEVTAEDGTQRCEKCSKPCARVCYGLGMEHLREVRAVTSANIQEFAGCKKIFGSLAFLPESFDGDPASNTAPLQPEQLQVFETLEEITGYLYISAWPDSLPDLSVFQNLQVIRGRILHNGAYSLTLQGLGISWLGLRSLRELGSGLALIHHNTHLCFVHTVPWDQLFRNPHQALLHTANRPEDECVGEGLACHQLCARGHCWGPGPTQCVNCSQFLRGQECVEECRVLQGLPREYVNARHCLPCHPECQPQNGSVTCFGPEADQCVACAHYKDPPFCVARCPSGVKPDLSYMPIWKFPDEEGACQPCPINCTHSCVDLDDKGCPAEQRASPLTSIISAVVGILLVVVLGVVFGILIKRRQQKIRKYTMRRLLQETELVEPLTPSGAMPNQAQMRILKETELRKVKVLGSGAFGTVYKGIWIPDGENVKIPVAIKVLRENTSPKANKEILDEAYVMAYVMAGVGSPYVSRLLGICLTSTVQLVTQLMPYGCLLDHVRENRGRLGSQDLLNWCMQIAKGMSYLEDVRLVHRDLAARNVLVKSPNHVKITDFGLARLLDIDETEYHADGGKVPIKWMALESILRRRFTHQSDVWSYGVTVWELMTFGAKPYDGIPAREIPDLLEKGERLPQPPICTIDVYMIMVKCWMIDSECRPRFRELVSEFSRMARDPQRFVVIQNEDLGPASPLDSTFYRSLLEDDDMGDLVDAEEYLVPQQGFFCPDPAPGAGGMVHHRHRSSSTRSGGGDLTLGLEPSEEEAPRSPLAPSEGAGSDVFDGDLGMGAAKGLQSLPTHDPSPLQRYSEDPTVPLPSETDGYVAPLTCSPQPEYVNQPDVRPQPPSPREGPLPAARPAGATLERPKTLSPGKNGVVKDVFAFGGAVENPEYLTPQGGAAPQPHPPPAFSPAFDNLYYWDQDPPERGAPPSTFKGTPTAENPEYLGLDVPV
Protocol: as §1
as §2, with “Ba/F3-EGFR-V769_D770 insASV, Ba/F3-EGFR-D770_N771 insNPG, Ba/F3-EGFR-N771_P772 insH, Ba/F3-EGFR-H773_V774 insNPH, Ba/F3-EGFR-D770_N771 insSVD C797S, Ba/F3-EGFR-E746_A750del C797S, Ba/F3-EGFR-L858R C797S, Ba/F3-EGFR L861Q and Ba/F3-ERBB2-A775_G776insYVMA” for “Ba/F3-EGFR-L858R, Ba/F3-EGFR-delLREA,”

Ba/F3-EGFR L861Q cells = assay: BA/F3 (EGFR L861Q) proliferation, uncommon EGFR mutation; details: Table 10, classical activating and uncommon EGFR mutations
Protocol: as §1
as §2, with “Ba/F3-EGFR-V769_D770 insASV, Ba/F3-EGFR-D770_N771 insNPG, Ba/F3-EGFR-N771_P772 insH, Ba/F3-EGFR-H773_V774 insNPH, Ba/F3-EGFR-D770_N771 insSVD C797S, Ba/F3-EGFR-E746_A750del C797S, Ba/F3-EGFR-L858R C797S, Ba/F3-EGFR L861Q and Ba/F3-ERBB2-A775_G776insYVMA” for “Ba/F3-EGFR-L858R, Ba/F3-EGFR-delLREA,”

[4] = biological target: Ba/F3-EGFR-V769_D770 insASV cells (Homo sapiens, UniProt P00533, DUP767-769, cells depend on it); assay: BA/F3 (ASV) proliferation, EGFR Exon20 insertion mutation; details: Table 9; EGFR Exon20 insertion mutations; read-out: BA/F3 (ASV) IC50
Chain of Ba/F3-EGFR-V769_D770 insASV cells (P00533 with tags, fused parts or gaps DUP767-769): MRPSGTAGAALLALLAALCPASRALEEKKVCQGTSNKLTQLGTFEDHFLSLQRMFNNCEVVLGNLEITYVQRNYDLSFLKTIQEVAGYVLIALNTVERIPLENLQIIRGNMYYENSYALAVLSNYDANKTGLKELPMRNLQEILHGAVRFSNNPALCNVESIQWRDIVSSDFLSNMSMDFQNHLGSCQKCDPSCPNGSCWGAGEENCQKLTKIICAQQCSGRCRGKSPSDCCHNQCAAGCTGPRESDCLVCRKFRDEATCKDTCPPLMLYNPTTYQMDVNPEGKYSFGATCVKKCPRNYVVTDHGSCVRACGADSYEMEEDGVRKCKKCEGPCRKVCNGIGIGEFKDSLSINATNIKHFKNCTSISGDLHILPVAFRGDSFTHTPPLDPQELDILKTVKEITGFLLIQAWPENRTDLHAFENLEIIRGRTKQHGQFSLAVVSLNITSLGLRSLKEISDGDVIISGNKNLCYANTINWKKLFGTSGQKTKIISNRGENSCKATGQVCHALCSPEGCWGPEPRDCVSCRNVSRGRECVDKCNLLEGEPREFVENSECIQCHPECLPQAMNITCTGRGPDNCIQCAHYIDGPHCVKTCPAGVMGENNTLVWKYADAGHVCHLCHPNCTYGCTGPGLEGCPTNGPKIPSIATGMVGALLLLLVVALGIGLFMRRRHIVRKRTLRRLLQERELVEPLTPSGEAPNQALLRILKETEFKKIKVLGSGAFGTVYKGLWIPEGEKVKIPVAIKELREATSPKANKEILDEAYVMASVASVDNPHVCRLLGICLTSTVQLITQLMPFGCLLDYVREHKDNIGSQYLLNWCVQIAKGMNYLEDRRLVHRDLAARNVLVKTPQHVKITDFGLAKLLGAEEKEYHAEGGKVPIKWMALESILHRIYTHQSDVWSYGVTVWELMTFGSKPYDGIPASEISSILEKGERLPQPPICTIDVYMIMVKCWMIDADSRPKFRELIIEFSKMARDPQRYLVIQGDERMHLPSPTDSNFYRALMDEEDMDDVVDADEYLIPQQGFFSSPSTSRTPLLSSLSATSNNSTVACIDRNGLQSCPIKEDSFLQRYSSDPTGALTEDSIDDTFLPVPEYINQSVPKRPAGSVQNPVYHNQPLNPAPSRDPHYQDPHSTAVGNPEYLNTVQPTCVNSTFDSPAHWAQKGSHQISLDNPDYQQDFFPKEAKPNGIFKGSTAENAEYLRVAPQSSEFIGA
Protocol: as §1
as §2, with “Ba/F3-EGFR-V769_D770 insASV, Ba/F3-EGFR-D770_N771 insNPG, Ba/F3-EGFR-N771_P772 insH, Ba/F3-EGFR-H773_V774 insNPH, Ba/F3-EGFR-D770_N771 insSVD C797S, Ba/F3-EGFR-E746_A750del C797S, Ba/F3-EGFR-L858R C797S, Ba/F3-EGFR L861Q and Ba/F3-ERBB2-A775_G776insYVMA” for “Ba/F3-EGFR-L858R, Ba/F3-EGFR-delLREA,”

[5] = tested on: Ba/F3-EGFR-D770_N771 insSVD C797S cells; assay: BA/F3 (EGFR D770_N771 insSVD C797S) proliferation, acquired resistance; details: Ba/F3 EGFR-D770-N771ins_SVD; Table 11; acquired resistance space
Protocol: as §1
as §2, with “Ba/F3-EGFR-V769_D770 insASV, Ba/F3-EGFR-D770_N771 insNPG, Ba/F3-EGFR-N771_P772 insH, Ba/F3-EGFR-H773_V774 insNPH, Ba/F3-EGFR-D770_N771 insSVD C797S, Ba/F3-EGFR-E746_A750del C797S, Ba/F3-EGFR-L858R C797S, Ba/F3-EGFR L861Q and Ba/F3-ERBB2-A775_G776insYVMA” for “Ba/F3-EGFR-L858R, Ba/F3-EGFR-delLREA,”

[6] = tested on: Ba/F3-EGFR-E746_A750del C797S cells; assay: BA/F3 (EGFR E746_A750del C797S) proliferation, acquired resistance; details: Table 11, acquired resistance space
Protocol: as §1
as §2, with “Ba/F3-EGFR-V769_D770 insASV, Ba/F3-EGFR-D770_N771 insNPG, Ba/F3-EGFR-N771_P772 insH, Ba/F3-EGFR-H773_V774 insNPH, Ba/F3-EGFR-D770_N771 insSVD C797S, Ba/F3-EGFR-E746_A750del C797S, Ba/F3-EGFR-L858R C797S, Ba/F3-EGFR L861Q and Ba/F3-ERBB2-A775_G776insYVMA” for “Ba/F3-EGFR-L858R, Ba/F3-EGFR-delLREA,”

[7] = tested on: Ba/F3-EGFR-L858R C797S cells; assay: BA/F3 (EGFR L858R C797S) proliferation, acquired resistance; details: Table 11, acquired resistance space
Protocol: as §1
as §2, with “Ba/F3-EGFR-V769_D770 insASV, Ba/F3-EGFR-D770_N771 insNPG, Ba/F3-EGFR-N771_P772 insH, Ba/F3-EGFR-H773_V774 insNPH, Ba/F3-EGFR-D770_N771 insSVD C797S, Ba/F3-EGFR-E746_A750del C797S, Ba/F3-EGFR-L858R C797S, Ba/F3-EGFR L861Q and Ba/F3-ERBB2-A775_G776insYVMA” for “Ba/F3-EGFR-L858R, Ba/F3-EGFR-delLREA,”

[8] = biological target: Ba/F3-EGFR-D770_N771 insNPG cells (Homo sapiens, UniProt P00533, INS772GNP, cells depend on it); assay: BA/F3 (insNPG) proliferation, EGFR Exon20 insertion mutation; details: Table 9; EGFR Exon20 insertion mutations; read-out: BA/F3 (insNPG) IC50
Chain of Ba/F3-EGFR-D770_N771 insNPG cells (P00533 with tags, fused parts or gaps INS772GNP): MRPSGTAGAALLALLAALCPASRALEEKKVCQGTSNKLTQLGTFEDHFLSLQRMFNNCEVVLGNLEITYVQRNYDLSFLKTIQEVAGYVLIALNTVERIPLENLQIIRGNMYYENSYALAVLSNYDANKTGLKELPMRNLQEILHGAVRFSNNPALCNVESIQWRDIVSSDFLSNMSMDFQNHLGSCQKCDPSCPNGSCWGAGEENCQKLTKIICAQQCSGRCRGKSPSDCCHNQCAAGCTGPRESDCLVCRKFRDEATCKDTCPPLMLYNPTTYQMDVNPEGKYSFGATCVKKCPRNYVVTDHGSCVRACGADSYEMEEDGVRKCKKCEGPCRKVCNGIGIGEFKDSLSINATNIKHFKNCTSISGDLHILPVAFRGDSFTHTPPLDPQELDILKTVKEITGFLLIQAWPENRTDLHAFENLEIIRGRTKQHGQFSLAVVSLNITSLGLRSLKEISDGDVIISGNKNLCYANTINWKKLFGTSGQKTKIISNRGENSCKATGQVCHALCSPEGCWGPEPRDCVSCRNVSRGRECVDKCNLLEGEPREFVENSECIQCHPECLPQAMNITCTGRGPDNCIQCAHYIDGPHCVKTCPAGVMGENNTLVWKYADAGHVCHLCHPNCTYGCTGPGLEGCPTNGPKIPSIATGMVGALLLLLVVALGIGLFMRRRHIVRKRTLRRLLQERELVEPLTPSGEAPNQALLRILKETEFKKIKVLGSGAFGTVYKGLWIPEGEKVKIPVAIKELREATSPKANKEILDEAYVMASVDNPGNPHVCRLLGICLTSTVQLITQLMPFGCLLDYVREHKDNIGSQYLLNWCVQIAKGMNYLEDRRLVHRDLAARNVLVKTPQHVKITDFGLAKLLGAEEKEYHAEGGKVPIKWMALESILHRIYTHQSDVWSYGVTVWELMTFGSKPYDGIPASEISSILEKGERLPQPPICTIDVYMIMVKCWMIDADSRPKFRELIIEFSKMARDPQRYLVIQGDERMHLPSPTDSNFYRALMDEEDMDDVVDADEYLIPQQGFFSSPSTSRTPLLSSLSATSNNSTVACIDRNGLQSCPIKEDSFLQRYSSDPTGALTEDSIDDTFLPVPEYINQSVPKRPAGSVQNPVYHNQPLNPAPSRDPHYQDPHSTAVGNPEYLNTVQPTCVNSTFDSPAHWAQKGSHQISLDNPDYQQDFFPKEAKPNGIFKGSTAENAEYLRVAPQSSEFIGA
Protocol: as §1
as §2, with “Ba/F3-EGFR-V769_D770 insASV, Ba/F3-EGFR-D770_N771 insNPG, Ba/F3-EGFR-N771_P772 insH, Ba/F3-EGFR-H773_V774 insNPH, Ba/F3-EGFR-D770_N771 insSVD C797S, Ba/F3-EGFR-E746_A750del C797S, Ba/F3-EGFR-L858R C797S, Ba/F3-EGFR L861Q and Ba/F3-ERBB2-A775_G776insYVMA” for “Ba/F3-EGFR-L858R, Ba/F3-EGFR-delLREA,”

PC9 cells (EGFRex19del) = assay: PC9 cell proliferation, Cell Titer Glo, 72 h; details: Homo sapiens, PC-9, 72 h, Table 12, several values per example
Protocol: (§6) PC9 cells were purchased from ATCC. 400 PC9 cells per well were seeded in growth medium (DMEM, 10% FCS) in a 384-well plate (CORNING #3571). Seed reference plate for time zero determination on the same day. All plates were incubated overnight at 37° C. After 24 hours, test compound were added in 7-step dilution using HP Compound printer and incubated at 37° C. for 72 h. After 3 days, 30 μL/well CTG solution (Promega Cell Titer Glo solution; catalog #G755B and G756B) were added to each well, incubated for 30 minutes and the plate were read on PheraStar. Proliferation is calculated after subtracting time zero luminescence values from day 4 values and comparing to untreated wells. The IC50 values were determined using the four parameter fit.

[9] = tested on: HCC-827 cells (EGFRex19del); assay: HCC-827 cell proliferation, Cell Titer Glo, 72 h; details: Homo sapiens, HCC827, 72 h, Table 12, several values per example
Protocol: as §6, with “HCC-827 cells” for “PC9 cells”, “[…]” for “400 PC9”, “medium (RPMI1640,” for “medium (DMEM,”, “wells.” for “wells. The IC50 values were determined using the four parameter fit.”
The IC50 values were determined using the four parameter fit.

[10] = Table 8, without IL-3, 48 h, read-out: BA/F3 (EGFR del19/delREA (746-750) IC50)
[11] = Table 10, classical activating and uncommon EGFR mutations
[12] = Table 10, classical activating and uncommon EGFR mutations, read-out: BA/F3 (EGFR E746_A750del) IC50

Chain of Ba/F3-EGFR-L858R cells (P00533 whole entry L858R): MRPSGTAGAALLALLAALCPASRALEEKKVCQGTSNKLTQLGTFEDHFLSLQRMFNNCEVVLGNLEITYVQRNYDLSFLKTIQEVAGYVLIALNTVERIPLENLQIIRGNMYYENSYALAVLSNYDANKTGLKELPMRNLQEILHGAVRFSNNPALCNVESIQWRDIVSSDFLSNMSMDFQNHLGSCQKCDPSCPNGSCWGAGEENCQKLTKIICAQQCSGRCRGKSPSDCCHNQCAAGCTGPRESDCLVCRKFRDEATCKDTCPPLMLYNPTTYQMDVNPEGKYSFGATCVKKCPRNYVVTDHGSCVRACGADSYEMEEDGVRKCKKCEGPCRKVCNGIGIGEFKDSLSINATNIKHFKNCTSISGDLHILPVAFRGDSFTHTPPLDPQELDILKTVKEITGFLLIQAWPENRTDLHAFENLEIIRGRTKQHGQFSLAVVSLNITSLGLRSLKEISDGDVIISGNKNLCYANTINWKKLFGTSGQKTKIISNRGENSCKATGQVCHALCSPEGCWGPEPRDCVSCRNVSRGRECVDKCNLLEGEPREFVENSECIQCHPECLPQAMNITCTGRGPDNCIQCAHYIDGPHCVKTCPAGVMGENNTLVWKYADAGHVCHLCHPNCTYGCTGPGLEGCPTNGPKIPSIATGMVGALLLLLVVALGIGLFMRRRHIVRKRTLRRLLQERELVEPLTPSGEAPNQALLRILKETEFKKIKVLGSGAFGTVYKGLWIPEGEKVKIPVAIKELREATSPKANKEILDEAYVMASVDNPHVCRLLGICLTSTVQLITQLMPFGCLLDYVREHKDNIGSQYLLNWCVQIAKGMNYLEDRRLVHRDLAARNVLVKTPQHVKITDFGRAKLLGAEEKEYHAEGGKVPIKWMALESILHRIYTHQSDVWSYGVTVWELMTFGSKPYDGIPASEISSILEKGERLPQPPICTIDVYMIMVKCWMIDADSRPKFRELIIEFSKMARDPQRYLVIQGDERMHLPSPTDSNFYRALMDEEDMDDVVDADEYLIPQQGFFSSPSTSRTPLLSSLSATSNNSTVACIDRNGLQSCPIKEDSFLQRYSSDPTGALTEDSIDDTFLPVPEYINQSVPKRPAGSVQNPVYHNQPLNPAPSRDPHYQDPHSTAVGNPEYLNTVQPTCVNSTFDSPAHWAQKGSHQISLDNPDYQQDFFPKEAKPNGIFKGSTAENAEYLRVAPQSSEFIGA

Row | SMILES | GI50 (Ba/F3-EGFR-L858R cells; Table 8, without IL-3, 48 h) | GI50 [1] | IC50 [2, 10] | GI50 [3] | IC50 (Ba/F3-EGFR L861Q cells) | GI50 (Ba/F3-EGFR-L858R cells; [11]) | GI50 [4] | IC50 [5] | IC50 [2, 12] | IC50 [6] | IC50 [7] | GI50 [8] | IC50 (PC9 cells (EGFRex19del)) | IC50 [9]
1 | COC(C)(C)COc1cnccc1-c1[nH]c2c(c1Nc1cccc(F)c1OC(F)F)C(=O)NCC2 [Example 19, 3-{[2-(difluoromethoxy)-3-fluorophenyl]amino}-2-[3-(2-methoxy-2-methylpropoxy)pyridin-4-yl]-1,5,6,7-tetrahydro-4H-pyrrolo[3,2-c]pyridin-4-one] | 4.7 nM | 870 nM | 0.32 nM |  |  |  |  |  |  |  |  |  |  | 
2 | COC(C)(C)COc1cnccc1-c1[nH]c2c(c1Nc1cccc(F)c1CC(F)F)C(=O)NCC2 [Example 23, 3-{[2-(2,2-difluoroethyl)-3-fluorophenyl]amino}-2-[3-(2-methoxy-2-methylpropoxy)pyridin-4-yl]-1,5,6,7-tetrahydro-4H-pyrrolo[3,2-c]pyridin-4-one] | 3.2 nM | 388 nM | 0.26 nM |  |  |  |  |  |  |  |  |  |  | 
3 | COc1c(Cl)cccc1Nc1c(-c2ccncc2OCC(C)(C)OC)[nH]c2c1C(=O)NCC2 [Example 33, 3-(3-chloro-2-methoxyanilino)-2-[3-(2-methoxy-2-methylpropoxy)pyridin-4-yl]-1,5,6,7-tetrahydro-4H-pyrrolo[3,2-c]pyridin-4-one] |  |  |  | 41.1 nM | 57.3 nM | 3.16 nM | 30.4 nM | 49.4 nM | 2.96 nM | 1.42 nM | 3.34 nM | 26.2 nM |  | 
4 | COc1c(Cl)cccc1Nc1c(-c2ccncc2OC[C@@H]2CCCN2C)[nH]c2c1C(=O)NCC2 [Example 48, 3-(3-chloro-2-methoxyanilino)-2-(3-{[(2S)-1-methylpyrrolidin-2-yl]methoxy}pyridin-4-yl)-1,5,6,7-tetrahydro-4H-pyrrolo[3,2-c]pyridin-4-one] |  |  |  | 21.7 nM | 21.4 nM | 1.39 nM | 15.1 nM | 17.2 nM | 1.13 nM | 0.543 nM | 1.06 nM | 10 nM | 10 nM | < 3 nM
